Assay results taken from ChEMBL document CHEMBL1152786, “Designed DNA probes from the neocarzinostatin family: impact of glycosyl linkage stereochemistry on bulge base binding” (Bioorg Med Chem, 2009).

What was measured:
[1] = Binding affinity to HT3AGTT sequence of bulge DNA by fluorescence quenching
[2] = Binding affinity to HT3AGT sequence of bulge DNA by fluorescence quenching
HT4AGTT bulged DNA = assay: Binding affinity to HT4AGTT sequence of bulge DNA by fluorescence quenching
[3] = Binding affinity to HT3AT sequence of bulge DNA by fluorescence quenching
Nucleic Acid = assay: Binding affinity to DA12:DAc12 oligomer sequence of bulge DNA by fluorescence quenching; assay type: nucleic-acid assay
[4] = Binding affinity to DA12:BA14 sequence of bulge DNA by fluorescence quenching
[5] = Binding affinity to HT3AGTA sequence of bulge DNA by fluorescence quenching
[6] = Binding affinity to HT3AGCTT sequence of bulge DNA by fluorescence quenching

`CN[C@H]1[C@H](O[C@@H]2c3cc4c(cc3[C@@H]3[C@H]2OC(=O)[C@@]32C(=O)C=Cc3c(C)cc(OC)cc32)[C@@](O)([C@H]2COC(=O)O2)C=C4)O[C@@H](C)[C@H](O)[C@@H]1O` showed a Kd [1] of 0.033 µM, a Kd [2] of 20.6 µM and a Kd (HT4AGTT bulged DNA) of 0.026 µM. For the same compound, the Kd [3] was 10 µM, the Kd (Nucleic Acid) was 307 µM and the Kd [4] was 2.18 µM. For the same compound, the Kd [5] was 12.5 µM and the Kd [6] was 0.71 µM.
Compound `CN[C@H]1[C@H](O[C@H]2c3cc4ccccc4cc3[C@H]3[C@@H]2C=C[C@]32C(=O)C=Cc3ccc(OC)cc32)O[C@H](C)[C@H](O)[C@@H]1O` has a Kd [1] of 0.2 µM, a Kd [2] of 14 µM and a Kd (HT4AGTT bulged DNA) of 0.19 µM. The Kd [3] was 8.2 µM, the Kd [4] was 0.4 µM and the Kd [5] was 0.39 µM. It also gave a Kd [6] of 1.8 µM.
In the case of `CN[C@H]1[C@H](O[C@@H]2c3cc4ccccc4cc3[C@@H]3[C@H]2C=C[C@@]32C(=O)C=Cc3ccc(OC)cc32)O[C@H](C)[C@H](O)[C@@H]1O`, the Kd [1] is reported as 1.6 µM, the Kd [2] is reported as 5.5 µM and the Kd (HT4AGTT bulged DNA) is reported as 1.5 µM. For the same compound, the Kd [3] was 9.2 µM, the Kd [4] was 0.43 µM and the Kd [5] was 0.44 µM. It also gave a Kd [6] of 1.95 µM.
`CN[C@H]1[C@@H](O[C@@H]2c3cc4ccccc4cc3[C@@H]3[C@H]2C=C[C@@]32C(=O)C=Cc3ccc(OC)cc32)O[C@H](C)[C@H](O)[C@@H]1O` gave a Kd [1] of 0.13 µM, a Kd [2] of 4.1 µM and a Kd (HT4AGTT bulged DNA) of 0.24 µM. For the same compound, the Kd [3] was 13 µM, the Kd [4] was 0.8 µM and the Kd [5] was 1.4 µM. The Kd [6] was 1.7 µM.
`CN[C@H]1[C@@H](O[C@H]2c3cc4ccccc4cc3[C@H]3[C@@H]2C=C[C@]32C(=O)C=Cc3ccc(OC)cc32)O[C@H](C)[C@H](O)[C@@H]1O` showed a Kd [1] of 0.08 µM, a Kd [2] of 8.4 µM and a Kd (HT4AGTT bulged DNA) of 0.11 µM. For the same compound, the Kd [3] was 10 µM, the Kd [4] was 0.6 µM and the Kd [5] was 0.22 µM. It also gave a Kd [6] of 2.1 µM.
